Tested on: patients with cGVHD
Details: Cohort 2 200 mg BID
Method: All responses were assessed by the investigators.
Reported Adverse Events. […] All-cause mortality data collected during the study were assessed for all enrolled participants. Disease progression related death was not reported as AE.
Number of Participants With Treatment-emergent Adverse Events (TEAEs), and Treatment-emergent Serious Adverse Events (TESAEs). […] TEAEs included both SAEs and non-SAEs. […] Analysis was performed on safety population which included all participants who received at least 1 dose of study medication.

CC(C)NC(=O)COc1cccc(-c2nc(Nc3ccc4[nH]ncc4c3)c3ccccc3n2)c1 [Belumosudil, 2-{3-[4-(1H-indazol-5-ylamino)-2-quinazolinyl]phenoxy}-N-(propan-2-yl) acetamide]
Macular degeneration: Affected/At Risk (%): 1/16 (6.25%)
Migraine: # Events: 1
Migraine: Affected/At Risk (%): 1/16 (6.25%)
Muscle spasms: # Events: 0
Muscle spasms: Affected/At Risk (%): 0/16 (0%)
Muscle spasticity: # Events: 0
Muscle spasticity: Affected/At Risk (%): 0/16 (0%)
Muscular weakness: # Events: 1
Muscular weakness: Affected/At Risk (%): 1/16 (6.25%)
Musculoskeletal chest pain: # Events: 0
Musculoskeletal chest pain: Affected/At Risk (%): 0/16 (0%)
Myalgia: # Events: 1
Myalgia: Affected/At Risk (%): 1/16 (6.25%)
Nail disorder: # Events: 0
Nail disorder: Affected/At Risk (%): 0/16 (0%)
Nasal congestion: Affected/At Risk (%): 0/16 (0%)
Nausea: # Events: 6
Nausea: Affected/At Risk (%): 4/16 (25%)
Neck pain: # Events: 0
Neck pain: Affected/At Risk (%): 0/16 (0%)
Nephrotic syndrome: # Events: 1
Nephrotic syndrome: Affected/At Risk (%): 1/16 (6.25%)
Neuropathy peripheral: # Events: 1
Neuropathy peripheral: Affected/At Risk (%): 1/16 (6.25%)
Neutrophil count decreased: # Events: 0
Neutrophil count decreased: Affected/At Risk (%): 0/16 (0%)
Nocturia: # Events: 0
Nocturia: Affected/At Risk (%): 0/16 (0%)
Non-cardiac chest pain: # Events: 3
Non-cardiac chest pain: Affected/At Risk (%): 3/16 (18.75%)
Obesity: # Events: 0
Obesity: Affected/At Risk (%): 0/16 (0%)
Oedema peripheral: # Events: 5
Oedema peripheral: Affected/At Risk (%): 4/16 (25%)
Oedema: # Events: 1
Oedema: Affected/At Risk (%): 1/16 (6.25%)
Oesophageal ulcer: # Events: 1
Oesophageal ulcer: Affected/At Risk (%): 1/16 (6.25%)
Oral candidiasis: # Events: 1
Oral candidiasis: Affected/At Risk (%): 1/16 (6.25%)
Oropharyngeal pain: # Events: 0
Oropharyngeal pain: Affected/At Risk (%): 0/16 (0%)
Orthopnoea: # Events: 0
Orthopnoea: Affected/At Risk (%): 0/16 (0%)
Osteonecrosis: # Events: 0
Osteonecrosis: Affected/At Risk (%): 0/16 (0%)
Osteopenia: # Events: 1
Osteopenia: Affected/At Risk (%): 1/16 (6.25%)
Osteoporosis: # Events: 1
Osteoporosis: Affected/At Risk (%): 1/16 (6.25%)
Overdose: # Events: 0
Overdose: Affected/At Risk (%): 0/16 (0%)
Pain in extremity: # Events: 3
Pain in extremity: Affected/At Risk (%): 2/16 (12.5%)
Pain: # Events: 0
Pain: Affected/At Risk (%): 0/16 (0%)
Palpitations: # Events: 0
Palpitations: Affected/At Risk (%): 0/16 (0%)
Paraesthesia: # Events: 1
Paraesthesia: Affected/At Risk (%): 1/16 (6.25%)
Pericardial effusion: # Events: 0
Pericardial effusion: Affected/At Risk (%): 0/16 (0%)
Peripheral coldness: # Events: 0
Peripheral coldness: Affected/At Risk (%): 0/16 (0%)
Peripheral sensory neuropathy: # Events: 1
Peripheral sensory neuropathy: Affected/At Risk (%): 1/16 (6.25%)
Phlebitis: # Events: 1
Phlebitis: Affected/At Risk (%): 1/16 (6.25%)
Photophobia: # Events: 1
Photophobia: Affected/At Risk (%): 1/16 (6.25%)
Platelet count decreased: # Events: 0
Platelet count decreased: Affected/At Risk (%): 0/16 (0%)
Pleural effusion: # Events: 0
Pleural effusion: Affected/At Risk (%): 0/16 (0%)
Pneumonia respiratory syncytial viral: # Events: 1
Pneumonia respiratory syncytial viral: Affected/At Risk (%): 1/16 (6.25%)
Pneumonia: # Events: 3
Pneumonia: Affected/At Risk (%): 3/16 (18.75%)
Pollakiuria: # Events: 0
Pollakiuria: Affected/At Risk (%): 0/16 (0%)
Presyncope: # Events: 3
Presyncope: Affected/At Risk (%): 3/16 (18.75%)
Productive cough: # Events: 7
Productive cough: Affected/At Risk (%): 2/16 (12.5%)
Proteinuria: # Events: 1
Proteinuria: Affected/At Risk (%): 1/16 (6.25%)
Pruritus: # Events: 4
Pruritus: Affected/At Risk (%): 2/16 (12.5%)
Pseudomonas infection: # Events: 2
Pseudomonas infection: Affected/At Risk (%): 1/16 (6.25%)
Pulmonary mass: # Events: 1
Pulmonary mass: Affected/At Risk (%): 1/16 (6.25%)
Pyrexia: # Events: 6
Pyrexia: Affected/At Risk (%): 3/16 (18.75%)
Rash erythematous: # Events: 1
Rash erythematous: Affected/At Risk (%): 1/16 (6.25%)
Rash maculo-papular: # Events: 0
Rash maculo-papular: Affected/At Risk (%): 0/16 (0%)
Rash pustular: # Events: 1
Rash pustular: Affected/At Risk (%): 1/16 (6.25%)
Rash: # Events: 1
Rash: Affected/At Risk (%): 1/16 (6.25%)
Red blood cells urine positive: # Events: 1
Red blood cells urine positive: Affected/At Risk (%): 1/16 (6.25%)
Renal failure: # Events: 1
Renal failure: Affected/At Risk (%): 1/16 (6.25%)
Respiratory syncytial virus infection: # Events: 1
Respiratory syncytial virus infection: Affected/At Risk (%): 1/16 (6.25%)
Respiratory tract infection fungal: # Events: 0
Respiratory tract infection fungal: Affected/At Risk (%): 0/16 (0%)
Respiratory tract infection: # Events: 0
Respiratory tract infection: Affected/At Risk (%): 0/16 (0%)
Restless legs syndrome: # Events: 1
Restless legs syndrome: Affected/At Risk (%): 1/16 (6.25%)
Rosacea: # Events: 1
Rosacea: Affected/At Risk (%): 1/16 (6.25%)
SAE, No. (%): 6 (38)
Sinus pain: # Events: 0
Sinus pain: Affected/At Risk (%): 0/16 (0%)
Sinusitis: # Events: 4
Sinusitis: Affected/At Risk (%): 2/16 (12.5%)
Skin abrasion: # Events: 0
Skin abrasion: Affected/At Risk (%): 0/16 (0%)
Skin lesion: # Events: 1
Skin lesion: Affected/At Risk (%): 1/16 (6.25%)
Skin papilloma: # Events: 0
Skin papilloma: Affected/At Risk (%): 0/16 (0%)
Spinal compression fracture: # Events: 0
Spinal compression fracture: Affected/At Risk (%): 0/16 (0%)
Squamous cell carcinoma of skin: # Events: 2
Squamous cell carcinoma of skin: Affected/At Risk (%): 2/16 (12.5%)
Stomatitis: # Events: 1
Stomatitis: Affected/At Risk (%): 1/16 (6.25%)
Superior vena cava syndrome: # Events: 2
Superior vena cava syndrome: Affected/At Risk (%): 1/16 (6.25%)
TEAE, participants (%): 16 (100%) participants
TESAE, participants (%): 6 (38%) participants
Tachycardia: # Events: 0
Tachycardia: Affected/At Risk (%): 0/16 (0%)
Tendonitis: # Events: 1
Tendonitis: Affected/At Risk (%): 1/16 (6.25%)
Testicular pain: # Events: 0
Testicular pain: Affected/At Risk (%): 0/16 (0%)
Testicular swelling: # Events: 0
Testicular swelling: Affected/At Risk (%): 0/16 (0%)
Thoracic spinal stenosis: # Events: 0
Thoracic spinal stenosis: Affected/At Risk (%): 0/16 (0%)
Thrombocytopenia: # Events: 1
Thrombocytopenia: Affected/At Risk (%): 1/16 (6.25%)
Thrombocytosis: # Events: 0
Thrombocytosis: Affected/At Risk (%): 0/16 (0%)
Tinea pedis: # Events: 1
Tinea pedis: Affected/At Risk (%): 1/16 (6.25%)
Tooth fracture: # Events: 1
Tooth fracture: Affected/At Risk (%): 1/16 (6.25%)
Total other adverse events: Affected/At Risk (%): 16/16 (100%)
Transfusion reaction: # Events: 0
Transfusion reaction: Affected/At Risk (%): 0/16 (0%)
Tremor: # Events: 2
Tremor: Affected/At Risk (%): 1/16 (6.25%)
Type 2 diabetes mellitus: # Events: 0
Type 2 diabetes mellitus: Affected/At Risk (%): 0/16 (0%)
Ulcerative keratitis: # Events: 1
Ulcerative keratitis: Affected/At Risk (%): 1/16 (6.25%)
Upper respiratory tract infection: # Events: 13
Upper respiratory tract infection: Affected/At Risk (%): 9/16 (56.25%)
Upper-airway cough syndrome: # Events: 2
Upper-airway cough syndrome: Affected/At Risk (%): 2/16 (12.5%)
Urinary retention: # Events: 2
